Positions of bridges follow the written chain, without caps; N, C: chain ends. Residues, ends and D or L forms follow the SMILES beside them.

What is called IC50 is the concentration that inhibits the measured activity by half. Low values mean greater potency, high ones weaker potency.

The test deals with T1, SARS-CoV-2 Spike A (wild-type) (Severe acute respiratory syndrome coronavirus 2, UniProt P0DTC2).
T1 construct: purchased Meso Scale Diagnostics, LLC V-PLEX SARS-CoV-2 Panel 13 (ACE2) Kit / Panel 23 (ACE2) Kit
As to the kind of experiment: MSD ACE2 competition assay (inhibition of Spike binding with ACE2, ECL), A (wild-type).

The mark [1] stands for this setting: IC50 Wild Type, Wild Type Spike.

`CC[C@H](C)[C@H](NC(=O)[C@H](CC(C)C)NC(=O)[C@H](CC(=O)O)NC(=O)[C@H](CO)NC(=O)[C@@H]1CSSC[C@H](NC(=O)[C@@H](NC(=O)[C@H](CCC(=O)O)NC(=O)[C@H](Cc2ccc(O)cc2)NC(=O)[C@@H](NC(=O)[C@H](CCCCN)NC(=O)[C@H](CCC(N)=O)NC(=O)[C@H](CC(C)C)NC(=O)[C@@H](NC(=O)[C@H](Cc2c[nH]c3ccccc23)NC(=O)[C@H](CCC(=O)O)NC(=O)[C@H](CCCCN)NC(=O)[C@@H](N)CC(=O)O)[C@@H](C)CC)[C@@H](C)CC)[C@@H](C)CC)C(=O)N[C@@H](CCCNC(=N)N)C(=O)N[C@@H](CC(C)C)C(=O)N[C@@H](CC(C)C)C(=O)N[C@@H](CC(=O)O)C(=O)N[C@@H](CCC(=O)O)C(=O)N[C@@H](CC(C)C)C(=O)NCC(=O)N[C@@H](Cc2cnc[nH]2)C(=O)N[C@@H](C)C(=O)N[C@@H](CCC(=O)O)C(=O)N[C@@H](C)C(=O)N[C@@H](CO)C(=O)N[C@@H](CCSC)C(=O)N[C@@H](CCCNC(=N)N)C(=O)N1)C(=O)N[C@@H](Cc1ccc(O)cc1)C(=O)N[C@@H](CCC(=O)O)C(=O)N[C@@H](Cc1ccccc1)C(=O)N[C@@H](CCSC)C(=O)N[C@@H](CCCCN)C(=O)N[C@@H](CCCCN)C(=O)NCC(=O)O` [Compound 136] (H-DKEWILQKIYEICRLLDELGHAEASMRCSDLIYEFMKKG-OH; disulfide 13-28) registered an IC50 under setting [1] of 2.53 nM. In other words, the single-digit nanomolar range. For the compound `CC[C@H](C)[C@H](NC(=O)[C@H](CC(C)C)NC(=O)[C@H](CC(=O)O)NC(=O)[C@H](CO)NC(=O)[C@@H]1CSSC[C@H](NC(=O)[C@@H](NC(=O)[C@H](CCC(=O)O)NC(=O)[C@H](Cc2ccc(O)cc2)NC(=O)[C@@H](NC(=O)[C@H](CCCCN)NC(=O)[C@H](CCC(N)=O)NC(=O)[C@H](CC(C)C)NC(=O)[C@@H](NC(=O)[C@H](Cc2c[nH]c3ccccc23)NC(=O)[C@H](CCC(=O)O)NC(=O)[C@H](CCCCN)NC(=O)[C@H](CC(=O)O)NC(C)=O)[C@@H](C)CC)[C@@H](C)CC)[C@@H](C)CC)C(=O)N[C@@H](CCCNC(=N)N)C(=O)N[C@@H](CC(C)C)C(=O)N[C@@H](CC(C)C)C(=O)N[C@@H](CC(=O)O)C(=O)N[C@@H](CCC(=O)O)C(=O)N[C@@H](CC(C)C)C(=O)NCC(=O)N[C@@H](Cc2cnc[nH]2)C(=O)N[C@@H](C)C(=O)N[C@@H](CCC(=O)O)C(=O)N[C@@H](C)C(=O)N[C@@H](CO)C(=O)N[C@@H](CCSC)C(=O)N[C@@H](CCCNC(=N)N)C(=O)N1)C(=O)N[C@@H](Cc1ccc(O)cc1)C(=O)N[C@@H](CCC(=O)O)C(=O)N[C@@H](Cc1ccccc1)C(=O)N[C@@H](CCSC)C(=O)N[C@@H](CCCCN)C(=O)N[C@@H](CCCCN)C(=O)NCC(=O)O` [Compound 137] (Ac-DKEWILQKIYEICRLLDELGHAEASMRCSDLIYEFMKKG-OH; disulfide 13-28), under setting [1], the half-inhibitory concentration (IC50) was 2.91 nM. The compound `CC[C@H](C)[C@H](NC(=O)[C@H](CC(C)C)NC(=O)[C@H](CC(=O)O)NC(=O)[C@H](CO)NC(=O)[C@@H](NC(=O)[C@H](CCCNC(=N)N)NC(=O)[C@H](CCSC)NC(=O)[C@@H]1CSSC[C@H](NC(=O)[C@H](CC(C)C)NC(=O)[C@H](CCCNC(=N)N)NC(=O)[C@H](CCSC)NC(=O)[C@@H](NC(=O)[C@H](CCC(=O)O)NC(=O)[C@H](Cc2ccc(O)cc2)NC(=O)[C@@H](NC(=O)[C@H](CCCCN)NC(=O)[C@H](CCC(N)=O)NC(=O)[C@H](CC(C)C)NC(=O)[C@@H](NC(=O)[C@H](Cc2c[nH]c3ccccc23)NC(=O)[C@H](CCC(=O)O)NC(=O)[C@H](CCCCN)NC(=O)[C@@H](N)CC(=O)O)[C@@H](C)CC)[C@@H](C)CC)[C@@H](C)CC)C(=O)N[C@@H](CC(=O)O)C(=O)N[C@@H](CCC(=O)O)C(=O)N[C@@H](CC(C)C)C(=O)NCC(=O)N[C@@H](Cc2c[nH]cn2)C(=O)N[C@@H](C)C(=O)N[C@@H](CCC(=O)O)C(=O)N[C@@H](C)C(=O)N1)C(C)C)C(=O)N[C@@H](Cc1ccc(O)cc1)C(=O)N[C@@H](CCC(=O)O)C(=O)N[C@@H](Cc1ccccc1)C(=O)N[C@@H](CCSC)C(=O)N[C@@H](CCCCN)C(=O)N[C@@H](CCCCN)C(=O)NCC(N)=O` [Compound 138] (H-DKEWILQKIYEIMRLCDELGHAEACMRVSDLIYEFMKKG-NH2; disulfide 16-25) registered an IC50 (IC50, Wild Type, Wild Type) of 12.7 nM.

Values taken from patent US20260306644A1, “ANTIBODY RECRUITING MOLECULES FOR THE TREATMENT OF CORONAVIRUS DISEASE-19” (priority 2023, published 2026).
